Like-named read-outs stand apart in the source and are kept apart here.
Tested on: Breast MCF-7 (MMR proficient)
Assay: MTT assay for 7-day toxicity assay
Assay type: cell-based
Summary of the method: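 Cells seeded at 400 cells/well, attached overnight, then exposed to compound at 0.5–1000 μM final for 7 days at 37 °C, 5% CO2. Viability read by MTT, with a day-0 plate fixed at drug addition as reference.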

[1] = Homo sapiens, MCF7, Breast MCF-7 (MMR proficient), read-out: GI50

Compound	GI50 [1] [µM]	GI50 (Breast MCF-7 (MMR proficient), 7-day MTT, single determinations) [µM]	GI50 (Homo sapiens, MCF7, 168 h, Breast MCF-7 (MMR proficient), 7-day MTT, single determinations) [µM]	GI50 (Homo sapiens, MCF7, read-out: TMZ GI50 Average, Breast MCF-7 (MMR proficient), average of Table 1) [µM]	GI50 (Homo sapiens, MCF7, Breast MCF-7 (MMR proficient)) [µM]
COCn1nnc2c(C(N)=O)ncn2c1=O [PX-020]	33.4				
C[Si](C)(C)CCOCn1nnc2c(C(N)=O)ncn2c1=O [PX-021]	30.3				
Cn1nnc2c(C(N)=O)ncn2c1=O [TMZ, 3-Methyl-4-oxo-3,4-dihydro-imidazo[5,1-d][1,2,3,5]tetrazine-8-carboxylic acid amide, reference compound]		424	342	383	383
